Measurements as given in patent publication EP2064211B1, “IMIDAZO[1,2-A]PYRIDINE HYDROXYMATE COMPOUNDS THAT ARE INHIBITORS OF HISTONE DEACETYLASE” (MEI Pharma, Inc., priority 2006, dated 2008).
Like-named read-outs stand apart in the source and are kept apart here.

Tests used:
[1] = test system: Colo205 cells; test: Cell-based proliferation assay for determination of GI50 values (CyQUANT); parameters: species or system Human; conditions: concentration for 50% inhibition of cell growth, read-out: Gl50 (Colo205)
Experimental: Human cancer cell lines (e.g. Colo205) were obtained from ATCC. Colo205 cells were cultivated in RPMI 1640 containing 2 mM L-Glutamine, 5% FBS, 1.0 mM Na Pyruvate. Colo205 cells were seeded in 96-wells plate at 5000 cells per well. The plates were incubated at 37°C, 5% CO2, for 24 h. Cells were treated with compounds at various concentrations for 96 h. Cell growth was then monitored using CyQUANT® cell proliferation assay (Invitrogen Pte Ltd). Dose response curves were plotted to determine Gl50 values for the compounds using XL-fit (ID Business Solution, Emeryville, CA). Gl50 is defined as the concentration of compound required for 50% inhibition of cell growth.

[2] = target: T1, HDAC1 enzyme (Homo sapiens, UniProt Q13547); test: In vitro HDAC assay for determination of IC50 values (BIOMOL fluorescent-based HDAC activity assay); type: biochemical; conditions: recombinant GST-HDAC1, 500 uM Flur de lys substrate, room temperature 2 h; read-out: IC50 (HDAC 1)
T1 construct: Amplification of human HDAC1 coding region from this cDNA library was cloned separately into the baculovirus expression pDEST20 vector; made in house; host or cells: SF9 insect cells (baculovirus, pDEST20 vector)
Experimental: Human cDNA library was prepared using cultured SW620 cells. Amplification of human HDAC1 coding region from this cDNA library was cloned separately into the baculovirus expression pDEST20 vector (GATEWAY Cloning Technology, Invitrogen Pte Ltd). The pDEST20-HDAC1 construct was confirmed by DNA sequencing. Recombinant baculovirus was prepared using the Bac-To-Bac method following the manufacturer's instruction (Invitrogen Pte Ltd).
Expression of GST-HDAC1 was done by infecting SF9 cells (Invitrogen Pte Ltd) with pDEST20-HDAC1 baculovirus at MOI=1 for 48 h. Soluble cell lysate was incubated with pre-equilibrated Glutathione Sepharose 4B beads (Amersham) at 4°C for 2 h. The beads were washed with PBS buffer for 3 times. The GST-HDAC1 protein was eluted by elution buffer containing 50 mM Tris, pH8.0, 150mM NaCl, 1% Triton X-100 and 10mM or 20mM reduced Glutathione. The purified GST-HDAC1 protein was dialyzed with HDAC storage buffer containing 10mM Tris, pH7.5, 100mM NaCl and 3mM MgCl2. 20% Glycerol was added to purified GST-HDAC1 protein before storage at -80°C.
The assay has been carried out in 96 well format and the BIOMOL fluorescent-based HDAC activity assay has been applied. The reaction composed of assay buffer, containing 25 mM Tris pH 7.5, 137 mM NaCl, 2.7 mM KCl, 1 mM MgCl2, 1 mg/ml BSA, tested compounds, an appropriate concentration of HDAC1 enzyme, 500 uM Flur de lys generic substrate for HDAC1 enzyme and subsequently was incubated at room temperature for 2 h. Flur de lys Developer was added and the reaction was incubated for 10 min. Briefly, deacetylation of the substrate sensitizes it to the developer, which then generates a fluorophore. The fluorophore is excited with 360 nm light and the emitted light (460 nm) is detected on a fluorometric plate reader (Tecan Ultra Microplate detection system, Tecan Group Ltd.).
The analytical software, Prism 4.0 (GraphPad Software Inc) has been used to generate IC50 from a series of data. IC50 is defined as the concentration of compound required for 50% inhibition of HDAC enzyme activity.

[3] = Homo sapiens, COLO 205, compound treatment 96 h

T1 sequence (Q13547 whole entry): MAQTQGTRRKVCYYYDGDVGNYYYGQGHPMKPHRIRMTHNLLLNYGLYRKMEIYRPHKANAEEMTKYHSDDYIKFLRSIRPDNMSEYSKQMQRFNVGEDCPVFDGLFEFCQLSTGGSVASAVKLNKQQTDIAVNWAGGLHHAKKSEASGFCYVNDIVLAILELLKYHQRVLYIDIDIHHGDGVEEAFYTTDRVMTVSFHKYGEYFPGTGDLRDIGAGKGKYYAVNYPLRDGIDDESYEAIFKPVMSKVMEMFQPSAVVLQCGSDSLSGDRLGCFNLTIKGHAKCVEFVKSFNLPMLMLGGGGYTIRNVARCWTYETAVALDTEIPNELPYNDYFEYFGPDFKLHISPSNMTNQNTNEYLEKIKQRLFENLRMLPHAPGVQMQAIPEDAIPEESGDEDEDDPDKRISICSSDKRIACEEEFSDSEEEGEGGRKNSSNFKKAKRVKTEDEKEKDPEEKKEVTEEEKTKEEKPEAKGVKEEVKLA

Compound	IC50 ([1]; compound treatment 96 h) [nM]	IC50 [2] [nM]	IC50 [1, 3] [nM]
3-(2-Butyl-3-{(ethyl-(2-methyl-pentyl)-amino]-methyl}-imidazo[1,2-a]pyridin-7-yl)-N-hydroxy-acrylamide [Compound 41]	370		
CC(C)(C)CNCc1c(C(C)(C)C)nc2cc(C=CC(=O)NO)ccn12 [Compound 1, 3-{2-tert-Butyl-3-[(2,2-dimethyl-propylamino)-methyl]-imidazo[1,2-a]pyridin-7-yl}-N-hydroxy-acrylamide]		190	1500
CCC(CC)NCc1c(C(C)(C)C)nc2cc(C=CC(=O)NO)ccn12 [Compound 2, 3-{2-tert-Butyl-3-[(1-ethyl-propylamino)-methyl]-imidazo[1,2-a]pyridin-7-yl}-N-hydroxy-acrylamide]		160	1500
CC(C)(C)NCc1c(C(C)(C)C)nc2cc(C=CC(=O)NO)ccn12 [Compound 3, 3-[2-tert-Butyl-3-(tert-butylamino-methyl)-imidazo[1,2-a]pyridin-7-yl]-N-hydroxy-acrylamide]		130	740
CCCCNCc1c(CCCC)nc2cc(C=CC(=O)NO)ccn12 [Compound 4, 3-(2-Butyl-3-butylaminomethyl-imidazo[1,2-a]pyridin-7-yl)-N-hydroxy-acrylamide]		20	180
CCCCc1nc2cc(C=CC(=O)NO)ccn2c1CN(CCC)CCC [Compound 6, 3-(2-Butyl-3-dipropylaminomethyl-imidazo[1,2-a]pyridin-7-yl)-N-hydroxy-acrylamide]		200	610
CCCCc1nc2cc(C=CC(=O)NO)ccn2c1CN(CC)CC [Compound 7, 3-(2-Butyl-3-diethylaminomethyl-imidazo[1,2-a]pyridin-7-yl)-N-hydroxy-acrylamide]		180	680
CCCCc1nc2cc(C=CC(=O)NO)ccn2c1CN(C)CCCC [Compound 8, 3-{2-Butyl-3-[(butyl-methyl-amino)-methyl]-imidazo[1,2-a]pyridin-7-yl}-N-hydroxy-acrylamide]		70	170
CCCCc1nc2cc(C=CC(=O)NO)ccn2c1CN(CC)CCCC [Compound 9, 3-{2-Butyl-3-[(butyl-ethyl-amino)-methyl]-imidazo[1,2-a]pyridin-7-yl}-N-hydroxy-acrylamide]		60	160
CCCCc1nc2cc(C=CC(=O)NO)ccn2c1CN(CCC)CCCC [Compound 10, 3-{2-Butyl-3-[(butyl-propyl-amino)-methyl]-imidazo[1,2-a]pyridin-7-yl}-N-hydroxy-acrylamide]		90	580
CCN(CC)Cc1c(C(C)(C)C)nc2cc(C=CC(=O)NO)ccn12 [Compound 11, 3-(2-tert-Butyl-3-diethylaminomethyl-imidazo[1,2-a]pyridin-7-yl)-N-hydroxy-acrylamide]		1200	4400
CCCCN(CCCC)Cc1c(C)nc2cc(/C=C/C(=O)NO)ccn12 [Compound 12, 3-(3-Dibutylaminomethyl-2-methyl-imidazo[1,2-a]pyridin-7-yl)-N-hyroxy-acrylamide]		80	800
CCCN(CC)Cc1c(C(C)(C)C)nc2cc(C=CC(=O)NO)ccn12 [Compound 13, 3-{2-tert-Butyl-3-[(ethyl-propyl-amino)-methyl]-imidazo[1,2-a]pyridin-7-yl}-N-hydroxy-acrylamide]		270	1800
CCCCc1nc2cc(C=CC(=O)NO)ccn2c1CN(C)C [Compound 14, 3-(2-Butyl-3-dimethylaminomethyl-imidazo[1,2-a]pyridin-7-yl)-N-hydroxy-acrylamide]		40	230
CCNCc1c(C(C)(C)C)nc2cc(C=CC(=O)NO)ccn12 [Compound 15, 3-(2-tert-Butyl-3-ethylaminomethyl-imidazo[1,2-a]pyridin-7-yl)-N-hydroxy-acrylamide]		60	470
CCCCN(CC)Cc1c(C(C)(C)C)nc2cc(C=CC(=O)NO)ccn12 [Compound 16, 3-{2-tert-Butyl-3-[(butyl-ethyl-amino)-methyl]-imidazo[1,2-a]pyridin-7-yl}-N-hydroxy-acrylamide]		60	680
CCN(Cc1c(C(C)(C)C)nc2cc(C=CC(=O)NO)ccn12)CC(C)C [Compound 17, 3-{2-tert-Butyl-3-[(ethyl-isobutyl-amino)-methyl]-imidazo[1,2-a]pyridin-7-yl}-N-hydroxy-acrylamide]		570	3900
CCCCCN(CC)Cc1c(C(C)(C)C)nc2cc(C=CC(=O)NO)ccn12 [Compound 18, 3-{2-tert-Butyl-3-[(ethyl-pentyl-amino)-methyl]-imidazo[1,2-a]pyridin-7-yl}-N-hydroxy-acrylamide]		130	750
CCC(C)CN(CC)Cc1c(C(C)(C)C)nc2cc(C=CC(=O)NO)ccn12 (stereo not drawn) [Compound 19, 3-(2-tert-Butyl-3-{[ethyl-(2-methyl-butyl)-amino]-methyl}-imidazo[1,2-a]pyridin-7-yl)-N-hydroxy-acrylamide]			2200
CCN(CCC(C)C)Cc1c(C(C)(C)C)nc2cc(C=CC(=O)NO)ccn12 [Compound 20, 3-(2-tert-Butyl-3-{[ethyl-(3-methyl-butyl)-amino]-methyl}-imidazo[1,2-a]pyridin-7-yl)-N-hydroxy-acrylamide]		60	350
CCCCCCN(CC)Cc1c(C(C)(C)C)nc2cc(C=CC(=O)NO)ccn12 [Compound 21, 3-{2-tert-Butyl-3-[(ethyl-hexyl-amino)-methyl]-imidazo[1,2-a]pyridin-7-yl}-N-hydroxy-acrylamide]		240	2000
CCCC(C)CN(CC)Cc1c(C(C)(C)C)nc2cc(C=CC(=O)NO)ccn12 (stereo not drawn) [Compound 22, 3-(2-tert-Butyl-3-{[ethyl-(2-methyl-pentyl)-amino]-methyl}-imidazo[1,2-a]pyridin-7-yl)-N-hydroxy-acrylamide]		470	2100
CCN(CCC(C)(C)C)Cc1c(C(C)(C)C)nc2cc(C=CC(=O)NO)ccn12 [Compound 23, 3-(2-tert-Butyl-3-{[(3,3-dimethyl-butyl)-ethyl-amino]-methyl}-imidazo[1,2-a]pyridin-7-yl)-N-hydroxy-acrylamide]		70	480
CCC(CC)CN(CC)Cc1c(C(C)(C)C)nc2cc(C=CC(=O)NO)ccn12 [Compound 24, 3-(2-tert-Butyl-3-{[ethyl-(2-ethyl-butyl)-amino]-methyl}-imidazo[1,2-a]pyridin-7-yl)-N-hydroxy-acrylamide]		190	970
CCCCCCCN(CC)Cc1c(C(C)(C)C)nc2cc(/C=C/C(=O)NO)ccn12 [Compound 25]		540	2700
CCN(CCCSC)Cc1c(C(C)(C)C)nc2cc(C=CC(=O)NO)ccn12 [Compound 26, 3-(2-tert-Butyl-3-{[ethyl-(3-methylsulfanyl-propyl)-amino]-methyl}-imidazo[1,2-a]pyridin-7-yl)-N-hydroxy-acrylamide]		90	600
CCN(CCC(C)C)Cc1c(CC(C)C)nc2cc(C=CC(=O)NO)ccn12 [Compound 60, 3-(3-{[Ethyl-(3-methyl-butyl)-amino]-methyl}-2-isobutyl-imidazo[1,2-a]pyridin-7-yl)-N-hydroxy-acrylamide]			150
